The values below are quoted from earlier work in patent US12357619B2, “Noradrenergic and specific serotonergic anxiolytic and antidepressant, method for the production and use thereof” (ALLA CHEM, LLC, priority 2020, dated 2025).

In this series the target is T1, Serotonin 5-HT2C (Homo sapiens, UniProt P28335).
T1 sequence (P28335 33-458): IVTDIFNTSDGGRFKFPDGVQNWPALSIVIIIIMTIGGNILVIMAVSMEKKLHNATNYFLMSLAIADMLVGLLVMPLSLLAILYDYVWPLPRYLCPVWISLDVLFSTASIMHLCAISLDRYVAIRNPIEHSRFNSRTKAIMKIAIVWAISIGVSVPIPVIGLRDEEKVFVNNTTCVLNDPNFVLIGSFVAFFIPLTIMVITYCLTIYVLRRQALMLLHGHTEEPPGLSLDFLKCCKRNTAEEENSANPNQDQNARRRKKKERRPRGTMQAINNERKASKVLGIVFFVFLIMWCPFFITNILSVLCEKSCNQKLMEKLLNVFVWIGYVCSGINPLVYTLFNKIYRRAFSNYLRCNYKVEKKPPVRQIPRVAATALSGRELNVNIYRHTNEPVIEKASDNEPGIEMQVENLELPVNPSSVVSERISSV
As to conditions: from en.wikipedia.org/wiki/Mirtazapine; cited from earlier work.

For orientation: Ki means a measure of affinity in units of concentration, obtained from inhibition or displacement. On to `CN1CCN2c3ncccc3Cc3ccccc3C2C1` (stereo not shown) [Mirtazapine], for which the Ki is 8.9 to 39 nM.
